Results reported in US20030190603A1, “Method and system for predicting therapeutic agent resistance and for defining the genetic basis of drug resistance using neural networks” (priority 2003, published 2003).
Like-named read-outs stand apart in the source and are kept apart here.

Columns and labels:
[1] = system: HIV-1; conditions: cited from earlier work
[2] = system: HIV-1; conditions: drug - cut-off, Larder & Harrigan AIDS 2000; cited from earlier work
[3] = system: patient's recombinant virus (HIV-1); assay: Phenotypic susceptibility, MT-4 cell viral cytopathic effect protection assay (fold resistance vs wild-type control virus); type: cell-based
Method: Phenotypic susceptibility was determined using a MT-4 cell viral cytopathic effect protection assay. See, e.g., Kashiwase et al., Chemotherapy 45(1):48-55 (1999), expressly incorporated herein by reference; Larder et al., Antimicrob. Agents Chemother. 43(8): 1961-1967 (1999). […] The procedure is also described in WO 97/27480.

[4] = HIV-1 mutation 333D/E in addition to M184V

## Cc1cn([C@H]2C[C@H](N=[N+]=[N-])[C@@H](CO)O2)c(=O)[nH]c1=O [AZT, 3′-azido-3′-deoxythymidine]
[1]; [4]
  Effect of mutation on resistance: dual AZT/3TC resistance
[1]; HIV-1 mutation M184V
  Effect of mutation on resistance: reverses AZT resistance
[2]
  Biological cut-off (fold resistance): 4.0

## Cc1cccc(C)c1OCC(=O)N[C@@H](Cc1ccccc1)[C@@H](O)C[C@H](Cc1ccccc1)NC(=O)[C@H](C(C)C)N1CCCNC1=O [Lopinavir]
[2]
  Biological cut-off (fold resistance): 2.5

## O=C1Nc2ccc(Cl)cc2[C@@](C#CC2CC2)(C(F)(F)F)O1 [DMP266]
[2]
  Biological cut-off (fold resistance): 6.0

## OC[C@@H]1CC[C@H](n2cnc3c(O)ncnc32)O1 [DDI, 2′,3′-dideoxyinosine]
[2]
  Biological cut-off (fold resistance): 2.0

## Cc1cn([C@H]2C=C[C@@H](CO)O2)c(=O)[nH]c1=O [D4T]
[3]; 92 of 188 test samples with d4T IC50<3-fold
  Mean fold change of IC50: 1.1 fold
[3]; 96 of 188 test samples with d4T IC50>3-fold
  Mean fold change of IC50: 7.7 fold
[3]; 1040 of 2286 samples with d4T IC50<3-fold
  Mean fold change of IC50: 1.2 fold
[3]; 1246 of 2286 samples with d4T IC50>3-fold
  Mean fold change of IC50: 9.0 fold
[2]
  Biological cut-off (fold resistance): 1.75

## Nc1nc(NC2CC2)c2ncn([C@H]3C=C[C@@H](CO)C3)c2n1 [1592 U89]
[3]; test sample 1
  Drug resistance level (from the phenotypic data): S/S (A fold resistance of less than or equal to 4 is considered to be)
[3]; test sample 2
  Drug resistance level (from the phenotypic data): S (A fold resistance of less than or equal to 4 is considered to be)
[3]; test sample 3
  Drug resistance level (from the phenotypic data): S/S (A fold resistance of less than or equal to 4 is considered to be)
[3]; test sample 4
  Drug resistance level (from the phenotypic data): S/S (A fold resistance of less than or equal to 4 is considered to be)
[3]; test sample 5
  Drug resistance level (from the phenotypic data): S/S (A fold resistance of less than or equal to 4 is considered to be)
[3]; test sample 6
  Drug resistance level (from the phenotypic data): I (greater than 4 and less than 10 is considered to be)
[3]; test sample 7
  Drug resistance level (from the phenotypic data): S/S (A fold resistance of less than or equal to 4 is considered to be)
[3]; test sample 8
  Drug resistance level (from the phenotypic data): I (greater than 4 and less than 10 is considered to be)
[3]; test sample 9
  Drug resistance level (from the phenotypic data): S/S (A fold resistance of less than or equal to 4 is considered to be)
[3]; test sample 10
  Drug resistance level (from the phenotypic data): S/S (A fold resistance of less than or equal to 4 is considered to be)
[2]
  Biological cut-off (fold resistance): 3.0

## Nc1ccn([C@H]2CC[C@@H](CO)O2)c(=O)n1 [DDC]
[2]
  Biological cut-off (fold resistance): 2.0

## CC(C)(C)NC(=O)[C@@H]1CN(Cc2cccnc2)CCN1C[C@@H](O)C[C@@H](Cc1ccccc1)C(=O)N[C@H]1c2ccccc2C[C@H]1O [Indinavir]
[2]
  Biological cut-off (fold resistance): 3.0

## CC(C)(C)NC(=O)[C@@H]1C[C@@H]2CCCC[C@@H]2CN1C[C@@H](O)[C@H](Cc1ccccc1)NC(=O)[C@H](CC(N)=O)NC(=O)c1ccc2ccccc2n1 [Saquinavir]
[2]
  Biological cut-off (fold resistance): 2.5

## Cc1ccnc2c1NC(=O)c1cccnc1N2C1CC1 [Nevirapine]
[2]
  Biological cut-off (fold resistance): 8.0

## Cc1c(O)cccc1C(=O)N[C@@H](CSc1ccccc1)[C@H](O)CN1C[C@H]2CCCC[C@H]2C[C@H]1C(=O)NC(C)(C)C [Nelfinavir]
[2]
  Biological cut-off (fold resistance): 4.0

## CC(C)c1nc(CN(C)C(=O)N[C@H](C(=O)N[C@@H](Cc2ccccc2)C[C@H](O)[C@H](Cc2ccccc2)NC(=O)OCc2cncs2)C(C)C)cs1 [Ritonavir]
[2]
  Biological cut-off (fold resistance): 3.5

## CC(C)CN(C[C@@H](O)[C@H](Cc1ccccc1)NC(=O)O[C@H]1CCOC1)S(=O)(=O)c1ccc(N)cc1 [VX-478]
[1]; HIV-1 mutation N88S
  Effect of mutation on susceptibility in vitro: hypersensitivity
[2]
  Biological cut-off (fold resistance): 2.0

## CC(C)Nc1cccnc1N1CCN(C(=O)c2cc3cc(NS(C)(=O)=O)ccc3[nH]2)CC1 [Delavirdine]
[2]
  Biological cut-off (fold resistance): 10.0

## Nc1ccn([C@@H]2CS[C@H](CO)O2)c(=O)n1 [3TC]
[1]; [4]
  Effect of mutation on resistance: dual AZT/3TC resistance
[1]; HIV-1 mutation M184V
  Effect of mutation on resistance: confers resistance
[3]; test sample 1
  Drug resistance level (from the phenotypic data): S/S (A fold resistance of less than or equal to 4 is considered to be)
[3]; test sample 2
  Drug resistance level (from the phenotypic data): R/R (if the value is greater than 10, it is considered to be)
[3]; test sample 3
  Drug resistance level (from the phenotypic data): R/R (if the value is greater than 10, it is considered to be)
[3]; test sample 4
  Drug resistance level (from the phenotypic data): S/S (A fold resistance of less than or equal to 4 is considered to be)
[3]; test sample 5
  Drug resistance level (from the phenotypic data): R/R (if the value is greater than 10, it is considered to be)
[3]; test sample 6
  Drug resistance level (from the phenotypic data): R (if the value is greater than 10, it is considered to be)
[3]; test sample 7
  Drug resistance level (from the phenotypic data): R/R (if the value is greater than 10, it is considered to be)
[3]; test sample 8
  Drug resistance level (from the phenotypic data): R/R (if the value is greater than 10, it is considered to be)
[3]; test sample 9
  Drug resistance level (from the phenotypic data): R/R (if the value is greater than 10, it is considered to be)
[3]; test sample 10
  Drug resistance level (from the phenotypic data): S/S (A fold resistance of less than or equal to 4 is considered to be)
[2]
  Biological cut-off (fold resistance): 4.5
